According to ChEMBL document CHEMBL1201862, “PubChem BioAssay data set” (2004):
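Each compound was tested at five concentrations against cells in 96-well plates for 48 hours. GI50 marks 50% less growth.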 Calls of active or inactive are those of the source. Cut-off read from the data, not from the text of the source: active = GI50 up to about 1.1 µM and inactive = higher.

What was measured:
Test in all cases: growth of human tumour cells (NCI), 48 h
A549 = system: A549
HCT-116 = system: HCT-116
HCT-15 = system: HCT-15
HOP-62 = system: HOP-62
LOX IMVI = system: LOX IMVI
MDA-MB-231 = system: MDA-MB-231
Malme-3M = system: Malme-3M
NCI-H226 = system: NCI-H226
OVCAR-3 = system: OVCAR-3
PC-3 = system: PC-3
RPMI-8226 = system: RPMI-8226
SF-268 = system: SF-268
SK-MEL-2 = system: SK-MEL-2
SK-MEL-5 = system: SK-MEL-5
SNB-19 = system: SNB-19
SW-620 = system: SW-620
TK-10 = system: TK-10
U-251 = system: U-251
NCI-H460 = system: NCI-H460
SK-MEL-28 = system: SK-MEL-28

Measured: GI50

CCCN(C(=O)c1ccccc1)C(C#N)c1ccc(C(C#N)N(CCC)C(=O)c2ccccc2)cc1 (centres undefined)
> 100 µM: HCT-15
inactive: A549 56.6 µM | HCT-116 > 100 µM | HOP-62 27.1 µM | LOX IMVI > 100 µM | MDA-MB-231 66.1 µM | Malme-3M > 100 µM | NCI-H226 20 µM | OVCAR-3 > 100 µM | PC-3 68.9 µM | RPMI-8226 > 100 µM | SF-268 85.9 µM | SK-MEL-2 > 100 µM | SK-MEL-5 92.5 µM | SNB-19 26.1 µM | SW-620 > 100 µM | TK-10 > 100 µM | U-251 40 µM

Clc1ccc(C(Cc2cccc(Cl)c2)c2c(Cl)nc(N3CCNCC3)nc2Cl)cc1 (centres undefined)
inactive: A549 16 µM | HCT-116 13.2 µM | HOP-62 15.4 µM | LOX IMVI 12.9 µM | MDA-MB-231 13.5 µM | Malme-3M 13.6 µM | NCI-H226 3.12 µM | NCI-H460 16.7 µM | OVCAR-3 15.8 µM | PC-3 16.9 µM | RPMI-8226 22.3 µM | SK-MEL-28 19.5 µM | SK-MEL-2 21.6 µM | SK-MEL-5 16.1 µM | SNB-19 16.9 µM | SW-620 16.5 µM | TK-10 16.4 µM | U-251 16.4 µM
13.6 µM: HCT-15

COC(=O)c1ccccc1NC(=S)NN(C)C
> 100 µM: HCT-15
inactive: A549 > 100 µM | HCT-116 > 100 µM | LOX IMVI > 100 µM | MDA-MB-231 > 100 µM | Malme-3M > 100 µM | NCI-H226 > 100 µM | OVCAR-3 > 100 µM | PC-3 > 100 µM | RPMI-8226 > 100 µM | SK-MEL-28 > 100 µM | SK-MEL-2 > 100 µM | SNB-19 > 100 µM | SW-620 > 100 µM | TK-10 > 100 µM | U-251 > 100 µM

NC(Cc1ccc(S(=O)(=O)O)cc1)C(=O)NC(CCCCNC(=O)NCCCCC(NC(=O)C(N)Cc1ccc(S(=O)(=O)O)cc1)C(=O)NC(Cc1ccc(S(=O)(=O)O)cc1)C(=O)O)C(=O)NC(Cc1ccc(S(=O)(=O)O)cc1)C(=O)O (centres undefined)
> 100 µM: HCT-15
inactive: A549 > 100 µM | HCT-116 > 100 µM | HOP-62 > 100 µM | LOX IMVI > 100 µM | MDA-MB-231 > 100 µM | Malme-3M > 100 µM | NCI-H226 > 100 µM | NCI-H460 > 100 µM | OVCAR-3 > 100 µM | PC-3 > 100 µM | RPMI-8226 > 100 µM | SF-268 > 100 µM | SK-MEL-28 > 100 µM | SK-MEL-2 > 100 µM | SK-MEL-5 > 100 µM | SW-620 > 100 µM | TK-10 > 100 µM | U-251 > 100 µM

OC[C@H]1N[C@H](CO)[C@@H](O)[C@H]1O
inactive: A549 > 100 µM | HCT-116 > 100 µM | HOP-62 > 100 µM | LOX IMVI > 100 µM | MDA-MB-231 > 100 µM | Malme-3M > 100 µM | NCI-H226 > 100 µM | PC-3 > 100 µM | RPMI-8226 > 100 µM | SF-268 > 100 µM | SK-MEL-28 > 100 µM | SK-MEL-2 > 100 µM | SK-MEL-5 > 100 µM | SNB-19 > 100 µM | SW-620 > 100 µM | TK-10 > 100 µM | U-251 > 100 µM
> 100 µM: HCT-15

COc1cc2c(cc1OC)C(=O)/C(=C/c1cc(C)cc(C)c1)C2
inactive: SF-268 12.9 µM | SK-MEL-28 40.7 µM | TK-10 21.1 µM
0.0296 µM: HCT-15
active: A549 0.0713 µM | HCT-116 0.0445 µM | HOP-62 0.127 µM | LOX IMVI 0.0807 µM | MDA-MB-231 0.143 µM | NCI-H226 0.172 µM | NCI-H460 0.06 µM | OVCAR-3 0.0324 µM | PC-3 0.0667 µM | RPMI-8226 0.129 µM | SK-MEL-2 0.184 µM | SK-MEL-5 0.0239 µM | SNB-19 1.1 µM | SW-620 0.0394 µM | U-251 0.122 µM
